Measurements taken from patent US10005774B2, “Syk inhibitors” (Gilead Sciences, Inc., priority 2013, dated 2018).
pIC50: −log10 of the molar value. Read-outs that look alike come from different tables or passages of the source.

Molecular target: Syk (Homo sapiens, UniProt P43405)
Test: High Throughput Syk Biochemical Assay (KinEASE TR-FRET)
Conditions: 20 μM ATP, 1 μM biotinylated peptide, 0.015 nM Syk, 30 min at room temperature
Outline: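 Compounds in DMSO dilution series were tested against Syk, which phosphorylates an XL665-tagged peptide. The phosphoproduct was bound by Eu-labelled phosphotyrosine antibody in a two-step endpoint format.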

[1] = table 'ALL NEW COMPOUNDS IN 2014', read-out: Syk IC50

pIC50 (TABLE D, read-out: IC50) | pIC50 [1] | Compound
8.28 |  | COc1cc(-c2cc3ncn(C)c3c(O[C@H](C)[C@H]3CNC(=O)C3)n2)cc(OC)c1OC [(R)-4-((R)-1-(3-methyl-6-(3,4,5-trimethoxyphenyl)-3H-imidazo[4,5-c]pyridin-4-yloxy)ethyl)pyrrolidin-2-one]
 | 7.74 | C[C@@H](Oc1cc(-c2ccccc2)cc2ncn(C3CC3)c12)[C@H]1CNC(=O)C1 [(R)-4-((R)-1-((1-cyclopropyl-5-phenyl-1H-benzo[d]imidazol-7-yl)oxy)ethyl)pyrrolidin-2-one]
 | 8.18 | (R)-4-((R)-1-((3-cyclopropyl-6-(3,4-dimethoxyphenyl)-3H-imidazo[4,5-c]pyridin-4-yl)oxy)ethyl)pyrrolidin-2-one
 | 6.39 | C[C@@H](Oc1cc(-c2ccnn2C2CCOCC2)cc2ncn(C3CC3)c12)[C@H]1CNC(=O)C1 [(R)-4-((R)-1-((1-cyclopropyl-5-(1-(tetrahydro-2H-pyran-4-yl)-1Hpyrazol-5-yl)-1H-benzo[d]imidazol-7-yl)oxy)ethyl)pyrrolidin-2-one]
7.47 |  | COc1ccc(-c2cc3ncn(C)c3c(O[C@H](C)[C@H]3CNC(=O)C3)n2)nc1OC [(R)-4-((R)-1-(6-(5,6-dimethoxypyridin-2-yl)-3-methyl-3H-imidazo[4,5-c]pyridin-4-yloxy)ethyl)pyrrolidin-2-one]
 | 8.84 | Cc1cc(-c2cc3ncn(C4CC4)c3c(O[C@H](C)[C@H]3CNC(=O)C3)n2)ccc1N1CCN(C2COC2)CC1 [(R)-4-((R)-1-((3-cyclopropyl-6-(3-methyl-4-(4-(oxetan-3-yl)piperazin-1-yl)phenyl)-3H-imidazo[4,5-c]pyridin-4-yl)oxy)ethyl)pyrrolidin-2-one]
 | 8.13 | C[C@@H](Oc1cc(-c2ccc(N3CCN(C4COC4)CC3)nc2)cc2ncn(C3CC3)c12)[C@H]1CNC(=O)C1 [(R)-4-((R)-1-((1-cyclopropyl-5-(6-(4-(oxetan-3-yl)piperazin-1-yl)pyridin-3-yl)-1H-benzo[d]imidazol-7-yl)oxy)ethyl)pyrrolidin-2-one]
9.17 |  | C[C@@H](Oc1cc(-c2ccc(N3CCN(C4COC4)CC3)cc2)cc2ncsc12)[C@H]1CNC(=O)C1 (stereo in doubt) [(R)-4-((R)-1-((5-(4-(4-(oxetan-3-yl)piperazin-1-yl)phenyl)benzo[d]thiazol-7-yl)oxy)ethyl)pyrrolidin-2-one]
 | 8.98 | CCS(=O)(=O)N1CCN(c2ccc(-c3cc4ncn(C5CC5)c4c(O[C@H](C)[C@H]4CNC(=O)C4)n3)cc2)CC1 [(R)-4-((R)-1-((3-cyclopropyl-6-(4-(4-(ethylsulfonyl)piperazin-1-yl)phenyl)-3H-imidazo[4,5-c]pyridin-4-yl)oxy)ethyl)pyrrolidin-2-one]
7.27 |  | COc1ccc(-c2cc(O[C@H](C)[C@H]3CNC(=O)C3)c3c(C)cnn3c2C)cc1OC [(R)-4-((R)-1-((6-(3,4-dimethoxyphenyl)-3,7-dimethylpyrazolo[1,5-a]pyridin-4-yl)oxy)ethyl)pyrrolidin-2-one]
 | 8.02 | C[C@@H](Oc1nc(-c2cnn(CC(C)(C)O)c2)cc2ncn(C3CC3)c12)[C@H]1CNC(=O)C1
7.02 |  | Cn1cnc2cc(-c3cnn(C(C)(C)C)c3)nc(O[C@H](CC(F)F)[C@H]3CNC(=O)C3)c21 [(R)-4-((R)-1-(6-(1-tert-butyl-1H-pyrazol-4-yl)-3-methyl-3H-imidazo[4,5-c]pyridin-4-yloxy)-3,3-difluoropropyl)pyrrolidin-2-one]
7.87 |  | C[C@@H](Oc1nc(-c2ccc3c(c2)N(C)CCO3)cc2ncn(C)c12)[C@H]1CNC(=O)C1 [(R)-4-((R)-1-(3-methyl-6-(4-methyl-3,4-dihydro-2H-benzo[b][1,4]oxazin-6-yl)-3H-imidazo[4,5-c]pyridin-4-yloxy)ethyl)pyrrolidin-2-one]
9.16 |  | COc1ccc(-c2cc(O[C@H](C)[C@H]3CNC(=O)C3)c3scnc3c2)nc1OC (stereo in doubt) [(R)-4-((R)-1-((5-(5,6-dimethoxypyridin-2-yl)benzo[d]thiazol-7-yl)oxy)ethyl)pyrrolidin-2-one]
 | 8.22 | Cc1nc(-c2cc(O[C@H](C)[C@H]3CNC(=O)C3)c3c(c2)ncn3C2CC2)cn1C [(R)-4-((R)-1-((1-cyclopropyl-5-(1,2-dimethyl-1H-imidazol-4-yl)-1H-benzo[d]imidazol-7-yl)oxy)ethyl)pyrrolidin-2-one]
8.08 |  | C[C@@H](Oc1nc(-c2ccc(N3CCNCC3)cc2)cc2ncn(C)c12)[C@H]1CNC(=O)C1 [(R)-4-((R)-1-(3-methyl-6-(4-(piperazin-1-yl)phenyl)-3H-imidazo[4,5-c]pyridin-4-yloxy)ethyl)pyrrolidin-2-one]
 | 7.76 | C[C@@H](Oc1nc(-c2cnc(N3CCN(C4COC4)CC3)c(F)c2)cc2ncn(C3CC3)c12)[C@H]1CNC(=O)C1 [(R)-4-((R)-1-((3-cyclopropyl-6-(5-fluoro-6-(4-(oxetan-3-yl)piperazin-1-yl)pyridin-3-yl)-3H-imidazo[4,5-c]pyridin-4-yl)oxy)ethyl)pyrrolidin-2-one]

pIC50 (TABLE D, read-out: IC50) | pIC50 [1] | Compound
8.12 |  | CC[C@@H](Oc1nc(-c2ccc(OC)c(OC)c2)cc2ncn(C)c12)[C@H]1CNC(=O)C1
8.31 |  | C[C@@H](Oc1nc(-c2cnn(C(C)(C)C)c2)cc2ncn(C)c12)[C@H]1CNC(=O)C1 [(R)-4-((R)-1-(6-(1-tert-butyl-1H-pyrazol-4-yl)-3-methyl-3H-imidazo[4,5-c]pyridin-4-yloxy)ethyl)pyrrolidin-2-one]
8.52 |  | CCn1cnc2cc(-c3ccc(OC)c(OC)c3)nc(O[C@H](C)[C@H]3CNC(=O)C3)c21 [(R)-4-((R)-1-(6-(3,4-dimethoxyphenyl)-3-ethyl-3H-imidazo[4,5-c]pyridin-4-yloxy)ethyl)pyrrolidin-2-one]
 | 8.67 | Cc1cc(-c2cc(O[C@H](C)[C@H]3CNC(=O)C3)c3c(c2)ncn3C2CC2)nn1C [(R)-4-((R)-1-((1-cyclopropyl-5-(1,5-dimethyl-1H-pyrazol-3-yl)-1H-benzo[d]imidazol-7-yl)oxy)ethyl)pyrrolidin-2-one]
 | 8.30 | C[C@@H](Oc1cc(-c2ccc3c(cnn3C)c2)cc2ncn(C3CC3)c12)[C@H]1CNC(=O)C1 [(R)-4-((R)-1-((1-cyclopropyl-5-(1-methyl-1H-indazol-5-yl)-1H-benzo[d]imidazol-7-yl)oxy)ethyl)pyrrolidin-2-one]
 | 7.18 | O=C1C[C@@H](COc2nc(-c3ccc(N4CCN(C5COC5)CC4)cc3)cc3ncn(C4CC4)c23)CN1 [(R)-4-(((3-cyclopropyl-6-(4-(4-(oxetan-3-yl)piperazin-1-yl)phenyl)-3H-imidazo[4,5-c]pyridin-4-yl)oxy)methyl)pyrrolidin-2-one]
9.57 |  | C[C@@H](Oc1cc(-c2cnn(C(C)(C)C)c2)cn2ncc(Cl)c12)[C@H]1CNC(=O)C1 [(R)-4-((R)-1-((6-(1-(tert-butyl)-1H-pyrazol-4-yl)-3-chloropyrazolo[1,5-a]pyridin-4-yl)oxy)ethyl)pyrrolidin-2-one]
 | 8.49 | C[C@@H](Oc1cc(-c2cnn(C3COC3)c2)cc2ncn(C3CC3)c12)[C@H]1CNC(=O)C1 [(R)-4-((R)-1-((1-cyclopropyl-5-(1-(oxetan-3-yl)-1H-pyrazol-4-yl)-1H-benzo[d]imidazol-7-yl)oxy)ethyl)pyrrolidin-2-one]
7.46 |  | C[C@@H](Oc1nc(-c2cnn(C(C)(C)C)c2)cc2ncn(C(F)F)c12)[C@H]1CNC(=O)C12CC2 [(R)-7-((R)-1-((6-(1-(tert-butyl)-1H-pyrazol-4-yl)-3-(difluoromethyl)-3H-imidazo[4,5-c]pyridin-4-yl)oxy)ethyl)-5-azaspiro[2.4]heptan-4-one]
7.62 |  | CC[C@@H](Oc1nc(-c2cnn(C(C)(C)C)c2)cc2ncn(C)c12)[C@H]1CNC(=O)C1 [(R)-4-((R)-1-(6-(1-tert-butyl-1H-pyrazol-4-yl)-3-methyl-3H-imidazo[4,5-c]pyridin-4-yloxy)propyl)pyrrolidin-2-one]
 | 8.12 | C[C@@H](Oc1cc(-c2cnn(-c3ccncc3)c2)cc2ncn(C3CC3)c12)[C@H]1CNC(=O)C1 [(R)-4-((R)-1-((1-cyclopropyl-5-(1-(pyridin-4-yl)-1H-pyrazol-4-yl)-1H-benzo[d]imidazol-7-yl)oxy)ethyl)pyrrolidin-2-one]
8.47 |  | CCn1ccc(-c2cc(O[C@H](C)[C@H]3CNC(=O)C3)c3scnc3c2)n1 [(R)-4-((R)-1-((5-(1-ethyl-1H-pyrazol-3-yl)benzo[d]thiazol-7-yl)oxy)ethyl)pyrrolidin-2-one]
 | 7.98 | C[C@@H](Oc1cc(-c2ccccn2)cc2ncn(C3CC3)c12)[C@H]1CNC(=O)C1 [(R)-4-((R)-1-((1-cyclopropyl-5-(pyridin-2-yl)-1H-benzo[d]imidazol-7-yl)oxy)ethyl)pyrrolidin-2-one]
 | 8.33 | C[C@@H](Oc1cc(-c2ccc(N3CCN(C4COC4)CC3)cn2)cc2ncn(C3CC3)c12)[C@H]1CNC(=O)C1 [(R)-4-((R)-1-((1-cyclopropyl-5-(5-(4-(oxetan-3-yl)piperazin-1-yl)pyridin-2-yl)-1H-benzo[d]imidazol-7-yl)oxy)ethyl)pyrrolidin-2-one]
 | 8.76 | C[C@@H](Oc1cc(-c2cnn(CC(C)(C)O)c2)cc2ncn(C3CC3)c12)[C@H]1CNC(=O)C1 [(R)-4-((R)-1-((1-cyclopropyl-5-(1-(2-hydroxy-2-methylpropyl)-1H-pyrazol-4-yl)-1H-benzo[d]imidazol-7-yl)oxy)ethyl)pyrrolidin-2-one]
9.16 |  | C[C@@H](Oc1cc(-c2cnn(C3CCOCC3)c2)cc2ncsc12)[C@H]1CNC(=O)C1 (stereo in doubt) [(R)-4-((R)-1-((5-(1-(tetrahydro-2H-pyran-4-yl)-1H-pyrazol-4-yl)benzo[d]thiazol-7-yl)oxy)ethyl)pyrrolidin-2-one]
 | 8.63 | C[C@@H](Oc1nc(-c2ccc3c(c2)NCC3(C)C)cc2ncn(C3CC3)c12)[C@H]1CNC(=O)C1 [(R)-4-((R)-1-((3-cyclopropyl-6-(3,3-dimethylindolin-6-yl)-3H-imidazo[4,5-c]pyridin-4-yl)oxy)ethyl)pyrrolidin-2-one]
